In PubChem BioAssay AID743087 (Broad Institute, 2013):
Active and inactive are the calls of the source.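 Rule for the calls: active = IC50 below 100 nM in HeLa cells, the median call across repeat tests; inactive = IC50 above 100 nM in HeLa cells.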

System: not listed separately
Experiment: cytotoxicity in TP53-mutant HeLa cells – cell-based, CellTiter-Glo luminescence, dry powder, dose response (AID 743087)
Conditions: HeLa viability, CellTiter-Glo luminescence, 48 h

**Q.** Which outcome does the source give for `CCN(CC)c1ccc(-c2nc(C(C)C)no2)cc1[N+](=O)[O-]` here?
**A.** inactive

System: HeLa viability, CellTiter-Glo luminescence, 48 h
Experiment: as above
Conditions: not given

**Q.** With `CCN(CC)c1ccc(C(=O)Nc2ccccc2)cc1[N+](=O)[O-]` as the compound, how does the IC50 read?
**A.** > 1 µM (inactive)

**Q.** For `O=C1CC(c2ccccc2)=NN1`, which IC50 is on record?
**A.** > 1 µM (inactive)

**Q.** With `CC1(C)C(=O)NN=C1c1ccc([N+](=O)[O-])cc1` as the compound, how does the IC50 read?
**A.** > 1 µM (inactive)

**Q.** Which IC50 does the source give for `C[C@@H]1CC(=O)NN=C1c1ccc(N2CCCC2=O)cc1` here?
**A.** 0.133 µM (inactive)

**Q.** For `Cc1nc2ccc(C3=NNC(=O)C[C@H]3C)cc2[nH]1`, which IC50 is on record?
**A.** > 1 µM (inactive)

**Q.** Which IC50 does the source give for `CC1CC(=O)NN=C1c1ccc(N2CCN(C(=O)Cc3ccc(Cl)cc3Cl)CC2)cc1` (configuration not stated) here?
**A.** > 1 µM (inactive)

**Q.** With `C[C@@H]1CC(=O)NN=C1c1ccc(N2CCCOC2=O)cc1` as the compound, how does the IC50 read?
**A.** > 1 µM (inactive)

**Q.** With `CC(=O)N1CCN(c2ccc(C3=NNC(=O)CC3C)cc2F)CC1` (configuration not stated) as the compound, how does the IC50 read?
**A.** > 1 µM (inactive)

**Q.** For `CCN(CC)c1ccc(C2=NNC(=O)CC2C)cc1NC(C)=O` (configuration not stated), which IC50 is on record?
**A.** > 1 µM (inactive)

**Q.** With `C[C@@H]1CC(=O)NN=C1c1ccc(C2CCCCC2)cc1` as the compound, how does the IC50 read?
**A.** 0.00759 µM

**Q.** Which IC50 does the source give for `CC1C(=O)NN=C1c1ccc([N+](=O)[O-])cc1` (configuration not stated) here?
**A.** > 1 µM (inactive)

**Q.** Which IC50 does the source give for `CC1CC(=O)NN=C1c1ccc(N2CCOCC2)c(F)c1` (configuration not stated) here?
**A.** 0.00273 µM

**Q.** Which IC50 does the source give for `CC(=O)Nc1ccc(C2=NNC(=O)CC2C)cc1` (configuration not stated) here?
**A.** > 1 µM (inactive)

**Q.** For `CCN(CC)c1ccc(C2=NNC(=O)C2(C)C)cc1`, which IC50 is on record?
**A.** > 1 µM (inactive)

**Q.** Which IC50 does the source give for `CC1(C)C(=O)NN=C1c1ccc(Cl)cc1` here?
**A.** > 1 µM (inactive)

**Q.** Which IC50 does the source give for `CC(=O)Nc1ccc(C2=NNC(=O)C[C@H]2C)cc1` here?
**A.** 0.00478 µM

**Q.** Which IC50 does the source give for `CCCc1ccc(C2=NNC(=O)C[C@H]2C)cc1` here?
**A.** 0.0162 µM

**Q.** Which IC50 does the source give for `CCN(CC)c1ccc(C2=NNC(=O)C[C@H]2C)cc1[N+](=O)[O-]` here?
**A.** > 1 µM (inactive)

**Q.** Which IC50 does the source give for `C[C@@H]1CC(=O)NN=C1c1ccc(Cl)cc1` here?
**A.** 0.0326 µM

**Q.** Which IC50 does the source give for `CCN1N=C(c2ccc(N(CC)CC)cc2)[C@H](C)CC1=O` here?
**A.** > 1 µM (inactive)

**Q.** With `CC(=O)Nc1ccc(C2=NNC(=O)C[C@H]2C)cc1C(C)=O` as the compound, how does the IC50 read?
**A.** 0.126 µM (inactive)

**Q.** Which IC50 does the source give for `CCN(CC)c1ccc(-c2n[nH]c(=O)cc2C)cc1` here?
**A.** > 1 µM (inactive)

**Q.** For `CC(=O)Nc1ccc(C2=NNC(=O)C[C@H]2C)cc1Br`, which IC50 is on record?
**A.** 0.0214 µM

**Q.** With `C[C@@H]1CC(=O)NN=C1c1ccc(N)c([N+](=O)[O-])c1` as the compound, how does the IC50 read?
**A.** > 1 µM (inactive)

**Q.** For `C[C@@H]1CC(=O)NN=C1c1ccc(-c2cncnc2)cc1`, which IC50 is on record?
**A.** 0.0126 µM

**Q.** With `CC1(C)C(=O)NN=C1c1ccc(N2CCOCC2)cc1` as the compound, how does the IC50 read?
**A.** > 1 µM (inactive)

**Q.** For `CC(=O)Nc1ccc(-c2n[nH]c(=O)cc2C)cc1`, which IC50 is on record?
**A.** > 1 µM (inactive)

**Q.** With `C#Cc1cc(C2=NNC(=O)C[C@H]2C)ccc1NC(C)=O` as the compound, how does the IC50 read?
**A.** 0.0646 µM

**Q.** Which IC50 does the source give for `CCNc1ccc(C2=NNC(=O)C[C@H]2C)cc1[N+](=O)[O-]` here?
**A.** 0.00108 µM

**Q.** With `C[C@@H]1CC(=O)NN=C1c1ccc([Si](C)(C)C)cc1` as the compound, how does the IC50 read?
**A.** 0.179 µM (inactive)

**Q.** Which IC50 does the source give for `CCN(CC)c1ccc(C2=NNC(=O)CC2C)cc1` (configuration not stated) here?
**A.** 0.00854 µM

**Q.** For `CC1CC(=O)NN=C1c1ccc(F)c(F)c1` (configuration not stated), which IC50 is on record?
**A.** 0.0641 µM

**Q.** With `O=C1C[C@H]2CCc3cc(N4CCOCC4)ccc3C2=NN1` (racemic) as the compound, how does the IC50 read?
**A.** > 1 µM (inactive)

**Q.** With `CCNc1ccc(C2=NNC(=O)C[C@H]2C)cc1` as the compound, how does the IC50 read?
**A.** 0.071 µM

**Q.** With `CCN(CC)c1ccc(C2=NNC(=O)CC2C)cc1NCCOCCOCCNC(=O)OC(C)(C)C` (configuration not stated) as the compound, how does the IC50 read?
**A.** > 1 µM (inactive)

**Q.** Which IC50 does the source give for `C[C@H]1CC(=O)NN=C1c1ccc(N2CCOCC2)c(F)c1` here?
**A.** > 1 µM (inactive)

**Q.** For `C[C@@H]1CC(=O)NN=C1c1ccc(N2CCOCC2)c(F)c1`, which IC50 is on record?
**A.** 0.00158 µM

**Q.** Which IC50 does the source give for `C[C@@H]1CC(=O)NN=C1c1ccc(-n2cnnc2)cc1` here?
**A.** > 1 µM (inactive)

**Q.** With `C[C@@H]1CC(=O)NN=C1c1ccc(N2CCOCC2)cc1` as the compound, how does the IC50 read?
**A.** 0.013 µM

**Q.** With `C/C=C/c1ccc(C2=NNC(=O)C[C@H]2C)cc1` as the compound, how does the IC50 read?
**A.** 0.00873 µM

**Q.** With `CC1(C)C(=O)NN=C1c1ccc(N)cc1` as the compound, how does the IC50 read?
**A.** > 1 µM (inactive)

**Q.** For `CCN(CC)c1ccc(C2=NNC(=O)CC2C)cc1N` (configuration not stated), which IC50 is on record?
**A.** 0.232 µM (inactive)

**Q.** For `C[C@@H]1CC(=O)NN=C1c1ccccc1`, which IC50 is on record?
**A.** 0.428 µM (inactive)

**Q.** Which IC50 does the source give for `CCN(CC)c1ccc(C2=NNC(=O)C[C@H]2C)cc1` here?
**A.** 0.00371 µM

**Q.** With `CC1CC(=O)NN=C1c1cccs1` (configuration not stated) as the compound, how does the IC50 read?
**A.** > 1 µM (inactive)

**Q.** With `CC1CC(=O)N(c2ccccc2)N=C1c1ccc(Cl)cc1` (configuration not stated) as the compound, how does the IC50 read?
**A.** > 1 µM (inactive)

**Q.** For `C[C@@H]1CC(=O)NN=C1c1ccc(N)c(Br)c1`, which IC50 is on record?
**A.** > 1 µM (inactive)

**Q.** With `C[C@@H]1CC(=O)NN=C1c1ccc(N2CCN(C)CC2)cc1` as the compound, how does the IC50 read?
**A.** 0.297 µM (inactive)

**Q.** With `C[C@@H]1CC(=O)NN=C1c1ccc(F)cc1` (racemic) as the compound, how does the IC50 read?
**A.** 0.36 µM (inactive)

**Q.** For `Cc1cc(=O)[nH]nc1-c1ccc(N)cc1`, which IC50 is on record?
**A.** > 1 µM (inactive)

**Q.** Which IC50 does the source give for `C[C@@H]1CC(=O)NN=C1c1ccc(N2CCOCC2)cc1` (racemic) here?
**A.** 0.0351 µM

**Q.** With `C[C@@H]1CC(=O)NN=C1c1ccc(N2CCCCC2)cc1` as the compound, how does the IC50 read?
**A.** 0.00383 µM

**Q.** Which IC50 does the source give for `Cc1ccc(CCC(=O)N2CCN(c3ccc(C4=NNC(=O)CC4C)cc3)CC2)cc1` (configuration not stated) here?
**A.** > 1 µM (inactive)

**Q.** With `CC(=O)Nc1ccc(C2=NNC(=O)C[C@H]2C)cc1N` as the compound, how does the IC50 read?
**A.** > 1 µM (inactive)

**Q.** Which IC50 does the source give for `C[C@@H]1CC(=O)NN=C1c1ccc(I)cc1` here?
**A.** 0.00702 µM

**Q.** For `C[C@@H]1CC(=O)NN=C1c1ccc(C2=CCCCC2)cc1`, which IC50 is on record?
**A.** 0.00222 µM

**Q.** For `C[C@@H]1CC(=O)NN=C1c1ccc(N2CCCCC2=O)cc1`, which IC50 is on record?
**A.** > 1 µM (inactive)

**Q.** Which IC50 does the source give for `CC(=O)Nc1ccc(C2=NNC(=O)C[C@H]2C)cc1[N+](=O)[O-]` here?
**A.** 0.00478 µM

**Q.** Which IC50 does the source give for `C[C@@H]1CC(=O)NN=C1c1ccc(N2CCCCS2(=O)=O)cc1` here?
**A.** 0.478 µM (inactive)

**Q.** For `C[C@H]1CC(=O)NN=C1c1ccc(F)c(F)c1`, which IC50 is on record?
**A.** > 1 µM (inactive)

**Q.** Which IC50 does the source give for `C[C@@H]1CC(=O)NN=C1c1ccc(F)c(F)c1` here?
**A.** 0.022 µM
